Experimental data published in patent publication US6673902B2, “Cyclin D binding factor, and uses thereof” (St. Jude Children's Research Hospital, priority 1996, dated 2004).

Legend:
[1] = tested on: 32P-BS2 Probe; assay: EMSA with 32P-BS2 probe on transfection lysates of NIH-3T3 fibroblasts; assay type: binding; conditions: 32P labeled BS2 probe
Protocol: (§1) Double-stranded oligonucleotides containing potential DMP1 binding sites (BS1 and BS2) and mutated versions (M1-M4) (FIG. 5B) are end-labeled with ^32P using the Klenow fragment of DNA polymerase and α-^32P-dATP (6000 Ci/mmol; Dupont NEN) (8). Nuclear extracts from mouse NIH-3T3 or CTLL cells are prepared with buffer containing 0.4 M NaCl (2). Mammalian cell extracts (15 μg protein) or Sf9 lysates (corresponding to 5×10^2 infected cells) containing ˜4 ng recombinant DMP1 are mixed with 3 ng of ^32P-labeled probe (1×10^5 cpm) in 15 ul Binding buffer containing 2.5 μg of poly(dI-dC) and 2.5 μg BSA and incubated at 4° C. for 30 minutes. For competition experiments, the indicated amounts of unlabeled oligonucleotides are added to the reactions before addition of the labeled probe. In some experiments, a bacterially produced GST-Ets2 fusion protein containing the complete Ets2 DNA-binding domain (10) is used in place of Sf9 extracts containing recombinant DMP1. Protein-DNA complexes are separated on nondenaturing 4% polyacrylamide gels as described (8). Where indicated, antiserum to DMP1 together with 2.5 μg salmon testis DNA (Sigma; used to reduce nonspecific DNA binding activity caused by serum addition) is preincubated with extracts for 30 minutes at 4° C. prior to initiation of binding reactions. Immune complexes are either removed by adsorption to protein A-Sepharose beads (immunodepletion experiments) or are allowed to remain (“supershift” experiments).
A series of deletion mutants and a point mutant of DMP1, K319E, (in which the lysine at position 319 of SEQ ID NO:1 is replaced by a glutamic acid) were prepared and used to determine the DNA-binding domain of DMP1 by electrophoretic mobility shift assay (EMSA) using a ^32P labeled BS2 probe. The DNA-binding domain of DMP1 was mapped to a central region containing the three MYB repeats plus adjacent flanking sequences: a BstEII to NcoI fragment encoding amino acids 87-458 of SEQ ID NO:1 (Table 1). This region alone was necessary and sufficient for DNA binding.

[2] = tested on: 281 bp ARF promoter fragment; assay: Transactivation of ARF promoter-luciferase reporter in NIH-3T3 cells; assay type: cell-based, mouse; conditions: NIH-3T3, 281 bp ARF promoter fragment-luciferase
Protocol: Transactivation assays. NIH-3T3 cells were transfected with 4 μg of pGL2-ARFpro BamHI or its DMP1 binding site mutant, with or without increasing amount of pFLEX-DMP1, pEVRFO-Ets1, pCMV-Ets2, pRcRSV-Elfl, pdEB-Fli1, p(IEB-EWS-Fli1 or pCMV-E2F-1 (89-437), and 4 μg β-actin SEAP control vectors [Inoue and Sherr, Mol. Cell. Biol. 18: 1590-1600 (1998); Inoue et al., J. Biol. Chem. 273:29188-29194 (1998); Davis and Roussel, Gene 171:265-269 (1996); Baily et al., Mol. Cell. Biol. 14:3230-3241 (1994)]. Transfections and normalization of luciferase levels with internal control SEAP levels were performed as described [Inoue and Sherr, Mol. Cell. Biol. 18:1590-1600 (1998)].
Similarly, DMP1 deletion mutants defective in transactivation [Inoue and Sherr, Mol. Cell. […] Mutation of the DMP1 binding site within the ARF promoter [changing CCCGGATGC, (SEQ ID NO:33) to CCCGTCGAC, (SEQ ID NO:42)] also completely abolished transactivation by wild-type DMP1 (FIG. 14C, mutant reporter). Therefore, sequences within the −189 to −181 ARF promoter segment were the only ones responsible for DMP1-mediated transactivation. Although Ets1 could bind to a 23 base pair oligonucleotide containing the DMP1 consensus site (FIG. 14B), several Ets proteins were unable to induce significant reporter gene expression from the more complex 281 base pair ARF promoter (FIG. 14C). […]

[3] = tested on: NIH-3T3 fibroblasts; assay: BrdU incorporation in transfected NIH-3T3 fibroblasts; assay type: cell-based, mouse
Protocol: BrdU is added to NIH-3T3 cells after the experimental treatment and the cells were incubated for twenty-two hours in DMEM plus 10% fetal calf serum (FCS). The cells were then stained for DMP1 expression and/or BrdU incorporation. The nucleic acids encoding the wildtype DMP1 and the deletion and point mutants had been constructed so as to express the corresponding proteins with Flag-tags. To stain for DMP1 expression, mouse monoclonal anti-Flag antibodies (12 μg/ml) [Kodak] were incubated with the cells in TBS-Ca^+ without FCS for one hour at room temperature. After washing the cells, horse anti-mouse biotinylated antibodies at a 1:500 dilution were added to the cells in TBS plus 5% FCS and incubated for 30 minutes at room temperature. After washing the cells, strefptavidin linked to Texas red [Amersham] was then added at a 1:500 dilution for 30 minutes at room temperature. To stain for BrdU incorporation, 1.5N HCl was added to the cells for ten minutes at room temperature to denature the DNA. After washing the cells, sheep anti-BrdU antibodies [Fitzgerald] at a 1:12 dilution were then added for one hour at room temperature. After washing the cells, rabbit FITC-conjugated anti-sheep antibodies [Vector] at 1:100 dilution was then incubated for 30 minutes at room temperature.
NIH-3T3 cells were placed on cover slides and transfected with the expression vectors (pFLEX-DMP1 or the corresponding vector containing the deletion or point mutants of mouse DMP1 plus or minus cyclin D or E) for fourteen hours. The cells were then washed twice and DMEM plus 10% FCS was added and the cells incubated for eight hours. Half of the cells were starved by washing twice with 0.1% FCS, and then incubated for twenty-four hours in 0.1% FCS in DMEM. The remaining cells were not starved but were incubated for twenty-four hours in DMEM plus 10% FCS without washing. BrdU was added to both groups of cells and the cells were incubated for twenty-two hours in DMEM plus 10% FCS.
The cells were then restimulated to enter the cell cycle synchronously with DMEM plus 10% FCS. At the same time, 5′-Bromo-2′ Deoxyuridine (BrdU) was added to the medium. The cells were fixed 22 hours later in methanol acetone (1:1) and stained for BrdU incorporation and DMP1 expression as described in the Materials and Methods.

[4] = tested on: DMP1-responsive promoter (pGL2BS2); assay: Transactivation of luciferase reporter plasmid under control of a DMP1-responsive promoter in NIH-3T3 fibroblasts; assay type: cell-based, mouse; conditions: expression vector 3 μg/10 ml, pGL2BS2 8 μg/10 ml; vector without insert set to 1.0
From the text: Coexpression of a D-type cyclin with DMP1 overrides the ability of DMP1 to transactivate a luciferase gene under the control of an artificial DMP1-responsive promoter (Table 4), as well as the ability of DMP1 to inhibit cell growth.

[5] = target: T1, recombinant DMP1 (Mus musculus, UniProt Q8CE22); assay: EMSA competition with Sf9 lysates producing recombinant DMP1; assay type: binding; conditions: excess unlabeled oligonucleotide
T1 construct: made in house; host or cells: Sf9 insect cells, pAcYM1 baculovirus vector; used as crude lysate (~4 ng DMP1 per reaction)
T1 sequence (Q8CE22 1-761): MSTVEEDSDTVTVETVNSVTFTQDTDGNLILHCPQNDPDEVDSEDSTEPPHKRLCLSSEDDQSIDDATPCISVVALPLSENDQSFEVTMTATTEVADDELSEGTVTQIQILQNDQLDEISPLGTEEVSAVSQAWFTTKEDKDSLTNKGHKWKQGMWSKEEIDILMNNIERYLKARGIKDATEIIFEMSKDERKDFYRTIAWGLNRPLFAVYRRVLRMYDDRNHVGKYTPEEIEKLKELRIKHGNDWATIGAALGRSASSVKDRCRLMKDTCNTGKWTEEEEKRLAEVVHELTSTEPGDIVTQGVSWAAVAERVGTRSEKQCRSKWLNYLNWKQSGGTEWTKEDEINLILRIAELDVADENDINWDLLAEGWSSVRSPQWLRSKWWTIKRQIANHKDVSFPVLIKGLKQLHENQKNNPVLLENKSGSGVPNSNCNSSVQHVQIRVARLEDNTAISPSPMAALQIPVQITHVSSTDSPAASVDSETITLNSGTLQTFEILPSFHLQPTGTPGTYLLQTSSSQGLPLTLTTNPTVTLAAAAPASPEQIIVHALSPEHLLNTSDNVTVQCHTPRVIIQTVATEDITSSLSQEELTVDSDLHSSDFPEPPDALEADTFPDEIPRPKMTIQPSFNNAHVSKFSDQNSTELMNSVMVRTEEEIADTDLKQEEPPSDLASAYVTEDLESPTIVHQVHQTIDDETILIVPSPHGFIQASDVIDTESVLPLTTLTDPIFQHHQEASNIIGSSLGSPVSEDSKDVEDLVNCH
Protocol: as §1
(§2) Using electrophoretic mobility shift assays (EMSA) performed after mixing a titrated excess (3 ng) of ^32P-end labeled BS1 probe with Sf9 lysates producing DMP1 (˜4 ng recombinant protein per reaction), a BS1-containing protein complex is detected that was competed with an excess of unlabeled BS1 oligonucleotide but not with mutant oligonucleotides M1 and M2 (FIG. 6A). […] More subtle mutations within this region may be tolerated, because high concentrations of M4 competed for BS1 binding to both Ets2 and DMP1 in subsequent studies (FIG. 5B and see below). DMP1 also binds a BS2 probe, and the binding is competed by excess BS2 or BS1 (FIG. 6B). In agreement with the site selection frequencies (FIG. 5A), binding of ^32P-BS1 under equivalent conditions was competed more efficiently by excess unlabeled BS1 than by BS2 (FIG. 6B). […] In agreement, Ets2 binding to BS1 could be competed with excess unlabeled BS1 and M3, but not by BS2 (FIG. 6C). Therefore, although both DMP1 and Ets2 can each bind to BS1 sequences, their exclusive interactions with BS2 and M3, respectively, help to distinguish DMP1 and Ets binding activities (summarized in FIG. 5B).

[6] = target: T2, GST-Ets2 fusion protein (Homo sapiens, UniProt P15036); assay: EMSA competition with bacterial GST-Ets2 fusion protein; assay type: binding; conditions: excess unlabeled oligonucleotide
T2 construct: made in house; host or cells: bacteria
T2 sequence (P15036 363-443 limits assumed): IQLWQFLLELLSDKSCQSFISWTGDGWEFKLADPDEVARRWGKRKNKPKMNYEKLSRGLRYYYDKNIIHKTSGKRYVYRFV
Protocol: as §1, §2

[7] = target: T1, recombinant DMP1; assay: EMSA competition, recombinant DMP1 and 281 base pair ARF promoter fragment; assay type: binding; conditions: 200-fold excess of unlabelled oligonucleotide
Protocol: Electrophoretic mobility shift assay (EMSA). Recombinant DMP1 protein was prepared in Sf9 cells [Hirai and Sherr, Mol. Cell. Biol. 16:6457-6467 (1996)]. Purified bacterial proteins representing the Ets1 DNA binding domain or full-length Ets1 [Inoue, et al., J. Biol. Chem. 273:29188-29194 (1998)] were used. EMSAs were performed [Inoue and Sherr, Mol. Cell. Biol. 18:1590-1600 (1998)] using either a 281-bp genomic fragment (−225 to +56) or double-stranded oligonucleotides containing the DMP1/Ets site obtained by annealing oligonucleotide 5′-[…]-3′ (sense strand SEQ ID NO:41); DMP1/Ets consensus sequence underlined) with a complementary antisense strand. For competition experiments, a 200-fold excess of unlabelled oligonucleotides was added to reaction mixtures before the probe. To verify the identity of the proteins in shifted complexes, reaction mixtures were incubated with control nonimmune rabbit serum (NRS), serum AF [Hirai and Sherr, Mol. Cell. Biol. 16:6457-6467 (1996)] and M-10 (both to DMP1 carboxylterminal epitopes), S-19 (DMP1 N-terminus), or C-20 (Ets1 C-terminus) before electrophoresis. M-10, S-19, and C-20 were from Santa Cruz Biotechnology.
The nucleotide sequence of the proximal promoter region of the murine ARF gene relative to the transcription initiation site as defined by S1 mapping analysis was determined (FIG. 13). […]

| Luciferase Activity [4] | Substance | affinity for the DNA probe relative to wildtype [1] | ARF promoter reporter gene expression [2] | % Cells BrdU Positive ([3]; Table 2, expression vector 3 μg/10 ml) [%] | % Cells BrdU Positive in 10% FCS ([3]; nonstarved cells, additive None, labeled 22 hours) [%] | % Cells BrdU Positive in 0.1% FCS ([3]; starved cells, additive None, labeled 22 hours) [%] | competition for 32P-BS1 probe binding to DMP1 [5] | competition for BS2 probe binding to DMP1 [5] | competition for BS1 binding to Ets2 [6] | competition for DMP1 binding to the 281 base pair ARF promoter fragment [7] |
| --- | --- | --- | --- | --- | --- | --- | --- | --- | --- | --- |
| 1.1 | M11: DMP1 point mutant, lysine at position 319 of SEQ ID NO:1 replaced by glutamic acid | about 2% | had no activity | 48 | 54 | 47 | – | – | – | – |
| – | oligonucleotide BS2: probe/competitor BS2, SEQ ID NO:11, DMP1 binding site CCCGTATGT with GTA core (DNA AATTGACCCGTATGTAGGTACGC; chemistry not given here) | – | – | – | – | – | competed | competed | not | completely inhibited |
